# Experimental data taken from PubChem BioAssay (NCI).
#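 Five compound concentrations were applied to cells in 96-well plates for 48 hours; endpoints were derived by simple linear interpolation of the resulting dose-response curve. The concentration for full growth arrest is given as TGI.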
# Columns and labels:
# Assay in all cases: NCI-60 cell line screen, 48 h
# HOP-62 NSCLC = system: HOP-62 NSCLC
# HL-60(TB) leukemia = system: HL-60(TB) leukemia
# UACC-257 melanoma = system: UACC-257 melanoma
# MDA-MB-231 breast = system: MDA-MB-231 breast
# OVCAR-8 ovarian = system: OVCAR-8 ovarian
# MCF7 breast = system: MCF7 breast
# K-562 leukemia = system: K-562 leukemia
# U251 CNS = system: U251 CNS
# SW-620 colon = system: SW-620 colon
# HCC-2998 colon = system: HCC-2998 colon
SMILES,TGI (HOP-62 NSCLC),TGI (HL-60(TB) leukemia),TGI (UACC-257 melanoma),TGI (MDA-MB-231 breast),TGI (OVCAR-8 ovarian),TGI (MCF7 breast),TGI (K-562 leukemia),TGI (U251 CNS),TGI (SW-620 colon),TGI (HCC-2998 colon)
Cc1cc(NS(=O)(=O)c2ccc(Nc3c4ccccc4nc4c(C(=O)NC(CO)(CO)CO)cccc34)cc2)no1,68.8 µM,> 100 µM,> 100 µM,> 100 µM,> 100 µM,> 100 µM,> 100 µM,> 100 µM,> 100 µM,55.7 µM
O=C(NC1=C(Cl)C(=O)c2ccccc2C1=O)C(=O)c1c(O)c2ccccc2oc1=O,18.8 µM,29.1 µM,3.17 µM,22.5 µM,31 µM,8.39 µM,> 100 µM,20.9 µM,> 40.9 µM,20.4 µM
Oc1c(NCn2nc(CCCCCCCCc3nn(CNc4ccc5ccccc5c4O)c(=S)o3)oc2=S)ccc2ccccc12,> 100 µM,,> 100 µM,> 100 µM,,> 100 µM,> 100 µM,> 100 µM,> 100 µM,> 100 µM
NCCCNCCSP(=O)(O)O,> 750 µM,> 721 µM,> 750 µM,,> 511 µM,> 750 µM,> 750 µM,> 750 µM,> 750 µM,> 750 µM
Cc1c2oc(=O)c(C#N)cc2c2ccccn12,,> 100 µM,> 100 µM,> 100 µM,> 100 µM,> 100 µM,> 100 µM,> 100 µM,> 100 µM,> 100 µM
Cc1ccc(N2Cc3c(ccc4ccccc34)OP2(=S)N2CCCC2)cc1 (stereo unspecified),> 100 µM,> 100 µM,> 100 µM,,> 100 µM,> 100 µM,> 100 µM,> 100 µM,> 100 µM,> 100 µM
CN1COCN=C1NC#N,> 100 µM,> 100 µM,> 100 µM,,,,> 100 µM,,> 100 µM,> 100 µM
COc1ccc(Cn2c(=O)c(OS(=O)(=O)C(F)(F)F)c(C)c3cc4ccccc4cc32)cc1,> 100 µM,> 100 µM,> 100 µM,> 100 µM,> 100 µM,> 100 µM,> 100 µM,> 100 µM,> 100 µM,> 100 µM
CC1(C)CC(=O)C2=C(C1)NC(=S)C(C#N)C2c1ccccc1 (stereo unspecified),> 100 µM,> 100 µM,> 100 µM,> 100 µM,> 100 µM,> 100 µM,> 100 µM,> 100 µM,> 100 µM,> 100 µM
COC(=O)c1c(CC(=O)OC(C)C)cc2n(c1=O)Cc1c-2nc2ccccc2c1OC,> 100 µM,> 100 µM,> 100 µM,,> 100 µM,,> 100 µM,> 100 µM,> 100 µM,> 100 µM
Cc1noc(-c2ccc(C(=O)O)[nH]2)c1Br,77.3 µM,,> 100 µM,> 100 µM,32.2 µM,> 100 µM,> 100 µM,> 100 µM,> 100 µM,> 100 µM
O=C(O)C12C=CC(C1)c1ccccc12 (stereo unspecified),> 100 µM,> 100 µM,> 100 µM,,> 100 µM,,> 100 µM,> 100 µM,> 100 µM,> 100 µM
